In patent US20080318938A1, “METHODS FOR TREATING ABERRANT CELL PROLIFERATION DISORDERS” (priority 2007, published 2008):

Key:
[1] = TA4-1A in plasma, brain and tumor of HCT116 tumor-bearing mice; type: in vivo; conditions: for Share of the therapeutic agent in brain / Share of the therapeutic agent in plasma / Share of the therapeutic agent in tumor: mice, 12.5 mg/kg IV daily 14 days, wash-out, last dose day 19
Description: In vivo experiment protocols were approved by the Animal Use and Care Committee. Female NCr nu/nu mice were purchased from Taconic Farms and group housed in a ventilated rack system on a 12/12 light cycle. All housing materials and water were autoclaved prior to use. The mice were fed ad libitum with gamma-irradiated laboratory chow and acidified water. Animals were handled under laminar-flow hoods. Animals were inoculated subcutaneously in the right flank with 5×10̂6 HCT116 cells. Tumors were monitored twice weekly and then daily as they approached the appropriate size for study. On Day 1 of the study, the animals were randomized into n=3 treatment groups with group average tumor sizes of 109 mm^3.
(§1) where w=width and 1=length in mm of the tumor. Tumor weight was estimated with the assumption that 1 mg is equivalent to 1 mm^3 of tumor volume. Mice were daily dosed with compound TA4-1A at 12.5 mg/kg (IV) during 14 days. A wash-out period ensued for four days with no dosing, and the last dose was administered after the wash-out period (day 19) at 12.5 mg/kg. At one, two and twenty-four hour time points plasma, brain and tumor samples were collected from terminal mice and frozen. It was determined that the tumor contained 35%, plasma contained 64% and brain contained 1% of the therapeutic agent after the one hour time point, and the tumor contained 74%, plasma contained 24% and brain contained 2% of the therapeutic agent after the two hour time point. At the 24 hour time point, tumor contained 17%, plasma contained 49% and brain contained 34% of the therapeutic agent. After an eight hour exposure to the agent in female and male rats, approximately 3-4% of the agent was available in the brain as compared to the amount in plasma. […] Examples of cell lines and particular brain cancers are described herein.

[2] = TA4-1A in brain compared to plasma in rats; type: in vivo; conditions: both sexes, rat, female and male rats, eight hour exposure, read-out: Agent available in the brain as compared to the amount in plasma
Description: as §1

Share of the therapeutic agent in brain ([1]; 24 hour): 34% | Share of the therapeutic agent in plasma ([1]; 24 hour): 49% | Share of the therapeutic agent in tumor ([1]; 24 hour): 17% | Share of the therapeutic agent in brain ([1]; one hour): 1% | Share of the therapeutic agent in plasma ([1]; one hour): 64% | Share of the therapeutic agent in tumor ([1]; one hour): 35% | Share of the therapeutic agent in brain ([1]; two hour): 2% | Share of the therapeutic agent in plasma ([1]; two hour): 24% | Share of the therapeutic agent in tumor ([1]; two hour): 74% | Kp at 8 h [2]: 0.03 to 0.04
Structure (SMILES): CC(=O)N1CCN(c2nc3c(cc2F)c(=O)c(C(=O)NCCN2CCCC2)c2n(C)c4ccccc4n32)CC1 [TA4-1A]
Blood-brain barrier permeation ([1]; mice and rats, conclusion from brain levels): can permeate the blood-brain barrier to some extent
